The term Kd denotes the free concentration of one partner at which half of the binding sites on the other are occupied at equilibrium, for simple one-to-one binding.

Molecules are shown by their SMILES. Read-outs that look alike come from different tables or passages of the source. Positions of bridges follow the written chain, without caps; N, C: chain ends. Residues, ends and D or L forms follow the SMILES beside them.

Experimental findings from publication PMC10763615, “Identification and engineering of potent cyclic peptides with selective or promiscuous binding through biochemical profiling and bioinformatic data analysis” (RSC Chemical Biology, 2023) are described below.

Common to all, as to type: binding
The target in assay [1] is T1, FGF-R3C ECD (Homo sapiens, UniProt P22607).
T1 sequence (P22607 23-375 limits assumed): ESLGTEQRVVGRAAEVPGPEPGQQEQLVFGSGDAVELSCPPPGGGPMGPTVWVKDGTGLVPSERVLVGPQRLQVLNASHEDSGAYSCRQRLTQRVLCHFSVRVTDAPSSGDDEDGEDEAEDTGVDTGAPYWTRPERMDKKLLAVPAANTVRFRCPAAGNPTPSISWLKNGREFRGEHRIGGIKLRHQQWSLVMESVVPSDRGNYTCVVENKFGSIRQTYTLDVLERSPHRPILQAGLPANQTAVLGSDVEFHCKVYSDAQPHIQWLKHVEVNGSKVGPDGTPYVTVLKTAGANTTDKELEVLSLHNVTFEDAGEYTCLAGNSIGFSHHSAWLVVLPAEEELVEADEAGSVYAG
In words: biochemical. On the set-up: DNA constructs for the extracellular domain (ECD) of human FGF-; HPC4 (C); made in house; host or cells: HEK 293-6E. The method, boiled down: (§1)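 Streptavidin biosensors carrying biotinylated FGF receptor ECD were immersed in peptide (~1 μM for crude single-point runs, a concentration series for purified peptides) and then in peptide-free buffer. KD was obtained by fitting the BLI association and dissociation curves.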

Assay [2] concerns the target T2, FGF-R1C ECD (Homo sapiens, UniProt P11362).
T2 sequence (P11362 22-376 limits assumed): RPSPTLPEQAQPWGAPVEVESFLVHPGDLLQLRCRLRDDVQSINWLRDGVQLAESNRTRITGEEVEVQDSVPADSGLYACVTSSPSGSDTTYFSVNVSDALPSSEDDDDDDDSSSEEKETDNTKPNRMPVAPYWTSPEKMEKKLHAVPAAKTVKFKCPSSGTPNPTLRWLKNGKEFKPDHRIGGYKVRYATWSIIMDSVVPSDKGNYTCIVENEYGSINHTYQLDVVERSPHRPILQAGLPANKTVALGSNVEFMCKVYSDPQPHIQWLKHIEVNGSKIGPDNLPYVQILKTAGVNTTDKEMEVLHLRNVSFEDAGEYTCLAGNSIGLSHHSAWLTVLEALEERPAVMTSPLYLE
Description: biochemical. On the set-up: DNA constructs for the extracellular domain (ECD) of human FGF-; HPC4 (C); made in house; host or cells: HEK 293-6E. The method, boiled down:
as §1

Assay [3] addresses T3, FGF-R4 ECD (Homo sapiens, UniProt P22455).
T3 construct: DNA constructs for the extracellular domain (ECD) of human FGF-; HPC4 (C); made in house; host or cells: HEK 293-6E
T3 sequence (P22455 22-369 limits assumed): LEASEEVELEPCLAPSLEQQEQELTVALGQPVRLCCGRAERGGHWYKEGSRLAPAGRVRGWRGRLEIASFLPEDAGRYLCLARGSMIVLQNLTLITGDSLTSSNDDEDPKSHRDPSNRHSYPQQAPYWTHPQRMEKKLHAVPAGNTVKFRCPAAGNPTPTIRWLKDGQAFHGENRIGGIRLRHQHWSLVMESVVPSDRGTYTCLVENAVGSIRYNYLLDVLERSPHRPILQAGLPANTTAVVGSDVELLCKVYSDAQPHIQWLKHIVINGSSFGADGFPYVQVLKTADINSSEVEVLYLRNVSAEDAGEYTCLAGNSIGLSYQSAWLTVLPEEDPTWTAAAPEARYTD
In words: single concentration BLI of crude peptides. The method, boiled down:
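Biotinylated FGF-R ECD on streptavidin biosensors was dipped into ~1 μM crude peptide in PBS pH7.4 with 0.05% Tween-20 and 0.01% BSA for association, then into buffer for dissociation, and followed by BLI. Fitted KD values were adjusted for peptide concentration measured by UPLC-CAD.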

[4] abbreviates: crude NNK peptides, single concentration BLI (Table S3), read-out: KD (4).
Setting [5] is: crude T18 selection 1 (1:1:1) peptides, single concentration BLI (Table S4), read-out: KD (4).

Consider `CC[C@H](C)[C@@H]1NC(=O)[C@H](CC(C)C)NC(=O)[C@H](CCCCN)NC(=O)[C@H](CO)NC(=O)[C@H](Cc2c[nH]c3ccccc23)NC(=O)[C@@H](NC(=O)[C@H](CCSC)NC(C)=O)CSSC[C@@H](C(=O)NCC(=O)N[C@@H](CO)C(=O)NCC(=O)N[C@@H](CO)C(=O)N[C@@H](CC(=O)O)C(=O)N[C@@H](Cc2ccc(O)cc2)C(=O)N[C@@H](CCCCN)C(=O)N[C@@H](CC(=O)O)C(=O)N[C@@H](CC(=O)O)C(=O)N[C@@H](CC(=O)O)C(=O)N[C@@H](CC(=O)O)C(=O)N[C@@H](CCCCN)C(N)=O)NC(=O)[C@H](CCC(N)=O)NC(=O)[C@H](CO)NC(=O)[C@H](CC(C)C)NC(=O)[C@H](Cc2ccc(O)cc2)NC(=O)[C@H](Cc2ccc(O)cc2)NC(=O)[C@H](CCCCN)NC(=O)[C@H]([C@@H](C)CC)NC1=O` (Ac-MCWSKLIIKYYLSQCGSGSDYKDDDDK-NH2; disulfide 2-15), for which the Kd in assay [1] was > 10 µM; in assay [2] it was > 10 µM; in assay [3] it was 0.016 µM.
On to `CSCC[C@H](NC(C)=O)C(=O)N[C@H]1CSSC[C@@H](C(=O)NCC(=O)N[C@@H](CO)C(=O)NCC(=O)N[C@@H](CO)C(=O)N[C@@H](CC(=O)O)C(=O)N[C@@H](Cc2ccc(O)cc2)C(=O)N[C@@H](CCCCN)C(=O)N[C@@H](CC(=O)O)C(=O)N[C@@H](CC(=O)O)C(=O)N[C@@H](CC(=O)O)C(=O)N[C@@H](CC(=O)O)C(=O)N[C@@H](CCCCN)C(N)=O)NC(=O)[C@H](CCC(N)=O)NC(=O)[C@H](CCCCN)NC(=O)[C@H](Cc2ccc(O)cc2)NC(=O)[C@H](C(C)C)NC(=O)[C@H]([C@@H](C)O)NC(=O)[C@H](Cc2c[nH]c3ccccc23)NC(=O)[C@H](Cc2ccc(O)cc2)NC(=O)[C@H](CCCCN)NC(=O)[C@H](C(C)C)NC(=O)[C@H](Cc2c[nH]c3ccccc23)NC1=O` (Ac-MCWVKYWTVYKQCGSGSDYKDDDDK-NH2; disulfide 2-13), for which the Kd in assay [1] was > 10 µM; in assay [2] it was > 10 µM; in assay [3] (setting [4]), 0.207 µM.
As for `CSCC[C@H](NC(C)=O)C(=O)N[C@H]1CSSC[C@@H](C(=O)NCC(=O)N[C@@H](CO)C(=O)NCC(=O)N[C@@H](CO)C(=O)N[C@@H](CC(=O)O)C(=O)N[C@@H](Cc2ccc(O)cc2)C(=O)N[C@@H](CCCCN)C(=O)N[C@@H](CC(=O)O)C(=O)N[C@@H](CC(=O)O)C(=O)N[C@@H](CC(=O)O)C(=O)N[C@@H](CC(=O)O)C(=O)N[C@@H](CCCCN)C(N)=O)NC(=O)[C@H](C(C)C)NC(=O)[C@H](CCCCN)NC(=O)[C@H](Cc2ccccc2)NC(=O)[C@H](Cc2c[nH]c3ccccc23)NC(=O)[C@H](Cc2ccccc2)NC(=O)[C@H](CCC(=O)O)NC(=O)[C@H](Cc2c[nH]cn2)NC(=O)[C@H](CCC(N)=O)NC(=O)[C@H](CCCCN)NC(=O)[C@H](Cc2ccccc2)NC(=O)[C@H](Cc2c[nH]c3ccccc23)NC(=O)[C@H](Cc2c[nH]c3ccccc23)NC1=O` (Ac-MCWWFKQHEFWFKVCGSGSDYKDDDDK-NH2; disulfide 2-15), the values for the Kd in assay [1], in assay [2] and in assay [3] (setting [5]) were > 10 µM, > 10 µM and 0.002 µM, respectively.
Regarding `CSCC[C@H](NC(C)=O)C(=O)N[C@H]1CSSC[C@@H](C(=O)NCC(=O)N[C@@H](CO)C(=O)NCC(=O)N[C@@H](CO)C(=O)N[C@@H](CC(=O)O)C(=O)N[C@@H](Cc2ccc(O)cc2)C(=O)N[C@@H](CCCCN)C(=O)N[C@@H](CC(=O)O)C(=O)N[C@@H](CC(=O)O)C(=O)N[C@@H](CC(=O)O)C(=O)N[C@@H](CC(=O)O)C(=O)N[C@@H](CCCCN)C(N)=O)NC(=O)[C@H](CCCCN)NC(=O)[C@H](CC(C)C)NC(=O)[C@H](C(C)C)NC(=O)[C@H](CC(C)C)NC(=O)[C@H](CCC(=O)O)NC(=O)[C@@H]2CCCN2C(=O)[C@H](CCSC)NC(=O)[C@H](Cc2ccccc2)NC(=O)[C@H](Cc2c[nH]c3ccccc23)NC(=O)[C@H](Cc2c[nH]c3ccccc23)NC1=O` (Ac-MCWWFMPELVLKCGSGSDYKDDDDK-NH2; disulfide 2-13), the dissociation constant Kd in assay [1], in assay [2] and in assay [3] (setting [4]) was > 10 µM each time.
Take `CSCC[C@H](NC(C)=O)C(=O)N[C@H]1CSSC[C@@H](C(=O)NCC(=O)N[C@@H](CO)C(=O)NCC(=O)N[C@@H](CO)C(=O)N[C@@H](CC(=O)O)C(=O)N[C@@H](Cc2ccc(O)cc2)C(=O)N[C@@H](CCCCN)C(=O)N[C@@H](CC(=O)O)C(=O)N[C@@H](CC(=O)O)C(=O)N[C@@H](CC(=O)O)C(=O)N[C@@H](CC(=O)O)C(=O)N[C@@H](CCCCN)C(N)=O)NC(=O)[C@H](CC(C)C)NC(=O)[C@H](CCCNC(=N)N)NC(=O)[C@H](CCC(=O)O)NC(=O)[C@H](Cc2c[nH]c3ccccc23)NC(=O)[C@H](Cc2ccc(O)cc2)NC(=O)[C@H](Cc2ccccc2)NC(=O)[C@H](CO)NC(=O)[C@H](Cc2c[nH]cn2)NC(=O)[C@H](CCC(N)=O)NC(=O)[C@H](CC(=O)O)NC(=O)[C@H](Cc2ccc(O)cc2)NC(=O)[C@H](Cc2c[nH]c3ccccc23)NC1=O` (Ac-MCWYDQHSFYWERLCGSGSDYKDDDDK-NH2; disulfide 2-15): the Kd in assay [1], in assay [2] and in assay [3] (setting [5]) was > 10 µM in each case.
With `CC[C@H](C)[C@@H]1NC(=O)[C@H](CC(=O)O)NC(=O)[C@H](Cc2ccc(O)cc2)NC(=O)[C@@H](NC(=O)[C@H](CCSC)NC(C)=O)CSSC[C@@H](C(=O)NCC(=O)N[C@@H](CO)C(=O)NCC(=O)N[C@@H](CO)C(=O)N[C@@H](CC(=O)O)C(=O)N[C@@H](Cc2ccc(O)cc2)C(=O)N[C@@H](CCCCN)C(=O)N[C@@H](CC(=O)O)C(=O)N[C@@H](CC(=O)O)C(=O)N[C@@H](CC(=O)O)C(=O)N[C@@H](CC(=O)O)C(=O)N[C@@H](CCCCN)C(N)=O)NC(=O)[C@H](Cc2c[nH]cn2)NC(=O)[C@H](Cc2ccc(O)cc2)NC(=O)[C@H](C(C)C)NC(=O)[C@H]([C@@H](C)O)NC(=O)[C@H]([C@@H](C)CC)NC(=O)[C@H](Cc2ccc(O)cc2)NC(=O)[C@H](CC(=O)O)NC(=O)[C@H](Cc2ccccc2)NC(=O)[C@H](C(C)C)NC1=O` (Ac-MCYDIVFDYITVYHCGSGSDYKDDDDK-NH2; disulfide 2-15), the Kd is > 10 µM in assay [1], > 10 µM in assay [2] and 0.021 µM in assay [3] (setting [5]).
As for `CC[C@H](C)[C@@H]1NC(=O)[C@H](CCC(=O)O)NC(=O)[C@H](CC(=O)O)NC(=O)[C@H](CCC(=O)O)NC(=O)[C@H](Cc2ccc(O)cc2)NC(=O)[C@@H](NC(=O)[C@H](CCSC)NC(C)=O)CSSC[C@@H](C(=O)NCC(=O)N[C@@H](CO)C(=O)NCC(=O)N[C@@H](CO)C(=O)N[C@@H](CC(=O)O)C(=O)N[C@@H](Cc2ccc(O)cc2)C(=O)N[C@@H](CCCCN)C(=O)N[C@@H](CC(=O)O)C(=O)N[C@@H](CC(=O)O)C(=O)N[C@@H](CC(=O)O)C(=O)N[C@@H](CC(=O)O)C(=O)N[C@@H](CCCCN)C(N)=O)NC(=O)[C@H](Cc2ccc(O)cc2)NC(=O)[C@H](CC(C)C)NC(=O)[C@H](C(C)C)NC(=O)[C@H](CCCCN)NC(=O)[C@H](Cc2ccc(O)cc2)NC(=O)[C@H](CC(C)C)NC(=O)[C@H](Cc2c[nH]c3ccccc23)NC1=O` (Ac-MCYEDEIWLYKVLYCGSGSDYKDDDDK-NH2; disulfide 2-15), the Kd in assay [1] was > 10 µM; in assay [2], > 10 µM; in assay [3] (setting [5]), 0.009 µM.
